Columns and labels:
[1] = Solubility and pH stability of the API; type: physicochemical
[2] = Table 9A: HPLC peaks over storage time, sample and storage not described; type: physicochemical
[3] = API; cited from earlier work

solubility in water or aqueous buffer systems [1]: practically insoluble
Peak %, CAP 7.1 RT: 20.25 ([2]; 5 days): 98.83%
Peak %, RRT:0.51 RT:10.43 ([2]; 5 days): 0.09%
Peak %, RRT: 0.54 RT: 10.89 (Etoposide) ([2]; 5 days): 0.17%
Peak %, RRT: 0.95 RT: 19.13 ([2]; 5 days): 0.09%
Peak %, RRT: 0.97 RT: 19.67 ([2]; 5 days): 0.67%
Peak %, RRT: 1.10 RT: 22.32 ([2]; 5 days): 0.04%
Peak %, RRT: 1.15 RT: 23.46 ([2]; 5 days): 0.07%
Peak %, RRT: 1.19 RT: 24.11 ([2]; 5 days): 0.04%
Peak %, CAP 7.1 RT: 20.25 ([2]; 12 days): 98.58%
Peak %, RRT:0.51 RT:10.43 ([2]; 12 days): 0.09%
Peak %, RRT: 0.54 RT: 10.89 (Etoposide) ([2]; 12 days): 0.22%
Peak %, RRT: 0.95 RT: 19.13 ([2]; 12 days): 0.09%
Peak %, RRT: 0.97 RT: 19.67 ([2]; 12 days): 0.87%
Peak %, RRT: 1.10 RT: 22.32 ([2]; 12 days): 0.03%
Peak %, RRT: 1.15 RT: 23.46 ([2]; 12 days): 0.07%
Peak %, RRT: 1.19 RT: 24.11 ([2]; 12 days): 0.04%
Peak %, CAP 7.1 RT: 20.25 ([2]; 17 days): 98.18%
Peak %, RRT:0.51 RT:10.43 ([2]; 17 days): 0.17%
Peak %, RRT: 0.54 RT: 10.89 (Etoposide) ([2]; 17 days): 0.33%
Peak %, RRT: 0.95 RT: 19.13 ([2]; 17 days): 0.10%
Peak %, RRT: 0.97 RT: 19.67 ([2]; 17 days): 1.10%
Peak %, RRT: 1.10 RT: 22.32 ([2]; 17 days): 0.04%
Peak %, RRT: 1.15 RT: 23.46 ([2]; 17 days): 0.04%
Peak %, RRT: 1.19 RT: 24.11 ([2]; 17 days): 0.04%
Peak %, CAP 7.1 RT: 20.25 ([2]; initial): 99.21%
Peak %, RRT: 0.54 RT: 10.89 (Etoposide) ([2]; initial): 0.10%
Peak %, RRT: 0.95 RT: 19.13 ([2]; initial): 0.10%
Peak %, RRT: 0.97 RT: 19.67 ([2]; initial): 0.48%
Peak %, RRT: 1.10 RT: 22.32 ([2]; initial): 0.05%
Peak %, RRT: 1.15 RT: 23.46 ([2]; initial): 0.04%
Peak %, RRT: 1.19 RT: 24.11 ([2]; initial): 0.03%
Compound: COc1cc([C@@H]2c3cc4c(cc3[C@@H](O[C@@H]3O[C@@H]5CO[C@@H](C)O[C@H]5[C@@H](O)[C@H]3O)[C@H]3COC(=O)[C@H]23)OCO4)cc(OC)c1OC(=O)OCC1COC(C)(C)O1 (stereo partly shown) [CAP 7.1, Etoposide toniribate]
solubility in water [3]: poorly soluble
stability at acidic and basic pH [3]: unstable
